Assay results as given in paper PMC12777571, “The molecular basis of intrinsic resistance to azoles in Rhizopus arrhizus” (Antimicrobial Agents and Chemotherapy, 2025).
Like-named read-outs stand apart in the source and are kept apart here.

Key:
[1] = target: T1, RaCYP51-F1 + RaCPR (strain Y-F1/CPR) (Rhizopus delemar, UniProt I1CF49); assay: inhibition of BOMCC hydrolysis in crude membranes, fluorescence; format: biochemical
T1 construct: gene RO3G_11790; full-length, codon-optimized, C-terminal GGR linker and 6xHis; co-expressed with 6xHis RaCPR in S. cerevisiae ADΔΔ deleted of native ERG11; crude membranes; ~60 kDa; with NADPH--cytochrome P450 reductase

[2] = target: T2, partially purified RaCYP51-F5 (Rhizopus delemar, UniProt I1CTV4); assay: type II difference spectrum (Soret red shift); format: binding; conditions: 1.0 µM enzyme, 40 µM azole (saturating); heme iron coordination
T2 construct: gene RO3G_16595; full-length, codon-optimized, C-terminal GGR linker and 6xHis; expressed in S. cerevisiae ADΔΔ; Ni-NTA purified from n-decyl-β-D-maltoside extract; ~60 kDa

[3] = target: T3, RaCYP51-F5 + RaCPR (strain Y-F5/CPR and variants) (Rhizopus delemar, UniProt I1CTV4, A291V/F129Y); assay: inhibition of BOMCC hydrolysis in crude membranes, fluorescence; format: biochemical
T3 construct: gene RO3G_16595; full-length, codon-optimized, C-terminal GGR linker and 6xHis; co-expressed with 6xHis RaCPR in S. cerevisiae ADΔΔ deleted of native ERG11; crude membranes; ~60 kDa; with NADPH--cytochrome P450 reductase

[4] = target: T4, RaCYP51-F5 + RaCPR (strain Y-F5/CPR and variants) (Rhizopus delemar, UniProt I1CTV4, A291V); assay: as above; format: biochemical
T4 construct: gene RO3G_16595; full-length, codon-optimized, C-terminal GGR linker and 6xHis; co-expressed with 6xHis RaCPR in S. cerevisiae ADΔΔ deleted of native ERG11; crude membranes; ~60 kDa; with NADPH--cytochrome P450 reductase

[5] = target: T5, RaCYP51-F5 + RaCPR (strain Y-F5/CPR and variants) (Rhizopus delemar, UniProt I1CTV4); assay: biochemical
T5 construct: gene RO3G_16595
Description: inhibition of BOMCC hydrolysis in crude membranes, fluorescence on RaCYP51-F5 + RaCPR (strain Y-F5/CPR and variants)

[6] = target: T6, RaCYP51-F5 + RaCPR (strain Y-F5/CPR and variants) (Rhizopus delemar, UniProt I1CTV4, F129Y); assay: inhibition of BOMCC hydrolysis in crude membranes, fluorescence; format: biochemical
T6 construct: gene RO3G_16595; full-length, codon-optimized, C-terminal GGR linker and 6xHis; co-expressed with 6xHis RaCPR in S. cerevisiae ADΔΔ deleted of native ERG11; crude membranes; ~60 kDa; with NADPH--cytochrome P450 reductase
T6 sequence (I1CM61 whole entry, stated change not applied): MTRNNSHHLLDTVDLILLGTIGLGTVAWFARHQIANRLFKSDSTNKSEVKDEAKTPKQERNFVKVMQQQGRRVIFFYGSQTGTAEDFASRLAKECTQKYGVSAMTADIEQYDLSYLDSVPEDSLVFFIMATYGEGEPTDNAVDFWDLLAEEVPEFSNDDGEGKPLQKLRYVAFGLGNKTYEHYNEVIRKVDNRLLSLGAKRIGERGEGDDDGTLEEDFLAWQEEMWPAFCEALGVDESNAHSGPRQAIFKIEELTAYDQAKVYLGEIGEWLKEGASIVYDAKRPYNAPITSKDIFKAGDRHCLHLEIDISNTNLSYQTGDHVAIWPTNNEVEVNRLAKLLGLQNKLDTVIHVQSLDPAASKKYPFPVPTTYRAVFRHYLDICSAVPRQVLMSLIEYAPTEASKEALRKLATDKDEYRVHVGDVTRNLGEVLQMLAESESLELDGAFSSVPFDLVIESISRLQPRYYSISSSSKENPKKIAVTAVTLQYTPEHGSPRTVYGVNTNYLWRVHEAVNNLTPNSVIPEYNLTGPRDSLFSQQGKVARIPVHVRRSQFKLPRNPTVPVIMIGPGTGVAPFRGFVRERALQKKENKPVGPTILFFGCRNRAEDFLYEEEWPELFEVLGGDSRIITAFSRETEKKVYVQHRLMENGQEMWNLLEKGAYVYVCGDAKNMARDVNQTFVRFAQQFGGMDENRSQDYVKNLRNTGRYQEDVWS
T6 sequence (I1CTV4 whole entry, stated change not applied): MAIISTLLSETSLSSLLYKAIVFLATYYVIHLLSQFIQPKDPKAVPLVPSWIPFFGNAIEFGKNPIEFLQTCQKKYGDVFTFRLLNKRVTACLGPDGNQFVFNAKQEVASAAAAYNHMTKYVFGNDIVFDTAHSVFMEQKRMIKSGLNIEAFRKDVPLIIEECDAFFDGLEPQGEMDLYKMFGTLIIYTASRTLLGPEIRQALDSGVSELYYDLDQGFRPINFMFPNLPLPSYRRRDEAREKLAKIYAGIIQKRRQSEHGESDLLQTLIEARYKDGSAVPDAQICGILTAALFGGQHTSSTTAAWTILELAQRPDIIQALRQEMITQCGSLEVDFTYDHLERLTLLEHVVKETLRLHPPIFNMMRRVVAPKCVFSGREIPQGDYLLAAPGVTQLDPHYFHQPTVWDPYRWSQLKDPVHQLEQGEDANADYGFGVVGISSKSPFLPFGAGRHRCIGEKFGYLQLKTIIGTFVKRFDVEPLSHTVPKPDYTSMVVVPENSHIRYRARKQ

T2 sequence (I1CTV4 entry or part of it): as the sequence (I1CTV4 whole entry, stated change not applied) above
T4 sequence (I1CTV4 whole entry, stated change not applied): as above
T4 sequence (I1CM61 whole entry, stated change not applied, further chain): as the sequence (I1CM61 whole entry, stated change not applied) above
T3 sequence (I1CTV4 whole entry, stated change not applied): as the sequence (I1CTV4 whole entry, stated change not applied) above
T3 sequence (I1CM61 whole entry, stated change not applied, further chain): as the sequence (I1CM61 whole entry, stated change not applied) above

Question: How did the IC50 ([1]; read-out: Voriconazole IC50) turn out when `C[C@@H](c1ncncc1F)[C@](O)(Cn1cncn1)c1ccc(F)cc1F` [voriconazole] was run?
Answer: The IC50 was 100 ± 70 nM.

Question: And the “type II difference spectrum (Soret red shift)” value [2]?
Answer: The value was “bound posaconazole or voriconazole upon exposure to saturating levels of these drugs”.

Question: What about the IC50 [3] of the same molecule?
Answer: Its IC50 is 60 ± 14 nM.

Question: What about the IC50 [4] of the same molecule?
Answer: Its IC50 is 500 nM.

Question: What about the IC50 [5] of the same molecule?
Answer: Its IC50 is > 1000 nM.

Question: What about the IC50 [6] of the same molecule?
Answer: The IC50 was 140 ± 57 nM.

Question: How did the IC50 ([1]; read-out: Posaconazole IC50) turn out when `CC[C@@H]([C@H](C)O)n1ncn(-c2ccc(N3CCN(c4ccc(OC[C@@H]5CO[C@@](Cn6cncn6)(c6ccc(F)cc6F)C5)cc4)CC3)cc2)c1=O` [posaconazole] was run?
Answer: Its IC50 is 21 ± 11 nM.

Question: What about the “type II difference spectrum (Soret red shift)” value [2] of the same molecule?
Answer: The value was “bound posaconazole or voriconazole upon exposure to saturating levels of these drugs”.

Question: And the IC50 [3]?
Answer: Its IC50 is 63 nM.

Question: And the IC50 [4]?
Answer: The IC50 was 55 ± 7 nM.

Question: And the IC50 [5]?
Answer: Its IC50 is 56 ± 28 nM.

Question: What about the IC50 [6] of the same molecule?
Answer: The IC50 was 75 ± 35 nM.
